# From patent US12708665B2, “Anti-IL-1β antibody therapy in arrhythmogenic cardiomyopathy (ACM)” (Beth Israel Deaconess Medical Center, Inc., priority 2019, dated 2026)
# Entries after “also recorded” stand apart in the source; their conditions may differ.
# Tested on: Dsg2^mut/mut mice
# Assay: Cytokine arrays, cytokine expression in hearts of Dsg2^mut/mut mice treated with Bay 11-7082
# Format: in vivo
# Source text: Quantitative data (mean±SEM; n=5) for expression of selected cytokines in hearts of vehicle-treated wildtype (WT) mice, Dsg2^mut/mut mice and Dsg2^mut/mut mice treated with Bay 11-7082. * P<0.05 compared to WT; †P<0.05 for treated vs. untreated Dsg2^mut/mut mice.
# To characterize production of chemical mediators of the immune response in ACM, we used arrays to measure 111 different cytokines in the hearts of Dsg2^mut/mut mice and compared the amounts to those measured in the hearts of WT mice and Dsg2^mut/mut mice treated with Bay 11-7082. We observed substantial expression of multiple cytokines in the hearts of Dsg2^mut/mut mice. […] Powerful inflammatory mediators were expressed in Dsg2^mut/mut hearts including IL-1β (up by ~13-fold compared to WT hearts), IFNγ (~5-fold), IL-12 (~6-fold) and TNFα (~2-fold). […] Finally, there were increases in some molecules that fulfill anti-inflammatory roles such as IL-1Ra (up by ~4-fold).
# [1] = cytokine expression level, mouse heart
compound,measurement,setting,value
Cc1ccc(S(=O)(=O)/C=C/C#N)cc1 [Bay11-7082],"IL-1β (IL-1F2), Dsg2^mut/mut (Bay11-7082) vs Dsg2^mut/mut",[1],<1
same,"IL-1β (IL-1F2), Dsg2^mut/mut (Bay11-7082) vs WT",[1],6-10
same,"IL-2, Dsg2^mut/mut (Bay11-7082) vs Dsg2^mut/mut",[1],<1
same,"IL-2, Dsg2^mut/mut (Bay11-7082) vs WT",[1],<1
same,"IL-3, Dsg2^mut/mut (Bay11-7082) vs Dsg2^mut/mut",[1],<1
same,"IL-3, Dsg2^mut/mut (Bay11-7082) vs WT",[1],<1
same,"IL-4, Dsg2^mut/mut (Bay11-7082) vs Dsg2^mut/mut",[1],<1
same,"IL-4, Dsg2^mut/mut (Bay11-7082) vs WT",[1],<1
same,"IL-5, Dsg2^mut/mut (Bay11-7082) vs Dsg2^mut/mut",[1],<1
same,"IL-5, Dsg2^mut/mut (Bay11-7082) vs WT",[1],<1
same,"IL-6, Dsg2^mut/mut (Bay11-7082) vs Dsg2^mut/mut",[1],<1
same,"IL-6, Dsg2^mut/mut (Bay11-7082) vs WT",[1],<1
same,"IL-7, Dsg2^mut/mut (Bay11-7082) vs Dsg2^mut/mut",[1],<1
same,"IL-7, Dsg2^mut/mut (Bay11-7082) vs WT",[1],<1
same,"IL-10, Dsg2^mut/mut (Bay11-7082) vs Dsg2^mut/mut",[1],<1
same,"IL-10, Dsg2^mut/mut (Bay11-7082) vs WT",[1],<1
same,"IL-11, Dsg2^mut/mut (Bay11-7082) vs Dsg2^mut/mut",[1],<1
same,"IL-11, Dsg2^mut/mut (Bay11-7082) vs WT",[1],<1
same,"IL-12 p40, Dsg2^mut/mut (Bay11-7082) vs Dsg2^mut/mut",[1],<1
same,"IL-12 p40, Dsg2^mut/mut (Bay11-7082) vs WT",[1],1-2
same,"IL-13, Dsg2^mut/mut (Bay11-7082) vs Dsg2^mut/mut",[1],<1
same,"IL-13, Dsg2^mut/mut (Bay11-7082) vs WT",[1],1-2
same,"IL-15, Dsg2^mut/mut (Bay11-7082) vs Dsg2^mut/mut",[1],<1
same,"IL-15, Dsg2^mut/mut (Bay11-7082) vs WT",[1],2-4
same,"IL-17a, Dsg2^mut/mut (Bay11-7082) vs Dsg2^mut/mut",[1],<1
same,"IL-17a, Dsg2^mut/mut (Bay11-7082) vs WT",[1],<1
same,"IL-22, Dsg2^mut/mut (Bay11-7082) vs Dsg2^mut/mut",[1],<1
same,"IL-22, Dsg2^mut/mut (Bay11-7082) vs WT",[1],<1
same,"IL-23, Dsg2^mut/mut (Bay11-7082) vs Dsg2^mut/mut",[1],<1
same,"IL-23, Dsg2^mut/mut (Bay11-7082) vs WT",[1],<1
same,"IL-27 p28, Dsg2^mut/mut (Bay11-7082) vs Dsg2^mut/mut",[1],<1
same,"IL-27 p28, Dsg2^mut/mut (Bay11-7082) vs WT",[1],<1
same,"IL-28A/B, Dsg2^mut/mut (Bay11-7082) vs Dsg2^mut/mut",[1],<1
same,"IL-28A/B, Dsg2^mut/mut (Bay11-7082) vs WT",[1],1-2
same,"IL-33, Dsg2^mut/mut (Bay11-7082) vs Dsg2^mut/mut",[1],<1
same,"IL-33, Dsg2^mut/mut (Bay11-7082) vs WT",[1],2-4
same,"IP-10 (CXL10/CRG-2), Dsg2^mut/mut (Bay11-7082) vs Dsg2^mut/mut",[1],<1
same,"IP-10 (CXL10/CRG-2), Dsg2^mut/mut (Bay11-7082) vs WT",[1],<1
same,"KC (CXCL1), Dsg2^mut/mut (Bay11-7082) vs Dsg2^mut/mut",[1],<1
same,"KC (CXCL1), Dsg2^mut/mut (Bay11-7082) vs WT",[1],<1
same,"LDL R, Dsg2^mut/mut (Bay11-7082) vs Dsg2^mut/mut",[1],1-2
same,"LDL R, Dsg2^mut/mut (Bay11-7082) vs WT",[1],1-2
same,"LIF, Dsg2^mut/mut (Bay11-7082) vs Dsg2^mut/mut",[1],<1
same,"LIF, Dsg2^mut/mut (Bay11-7082) vs WT",[1],<1
same,"LIX, Dsg2^mut/mut (Bay11-7082) vs Dsg2^mut/mut",[1],<1
same,"LIX, Dsg2^mut/mut (Bay11-7082) vs WT",[1],>10
same,"Leptin, Dsg2^mut/mut (Bay11-7082) vs Dsg2^mut/mut",[1],<1
same,"Leptin, Dsg2^mut/mut (Bay11-7082) vs WT",[1],1-2
same,"Lipocalin-2/NGAL, Dsg2^mut/mut (Bay11-7082) vs Dsg2^mut/mut",[1],<1
same,"Lipocalin-2/NGAL, Dsg2^mut/mut (Bay11-7082) vs WT",[1],<1
same,"M-CSF, Dsg2^mut/mut (Bay11-7082) vs Dsg2^mut/mut",[1],1-2
same,"M-CSF, Dsg2^mut/mut (Bay11-7082) vs WT",[1],>20
same,"MCP-5 (CCL12), Dsg2^mut/mut (Bay11-7082) vs Dsg2^mut/mut",[1],<1
same,"MCP-5 (CCL12), Dsg2^mut/mut (Bay11-7082) vs WT",[1],<1
same,"MIP-2 (CXCL2), Dsg2^mut/mut (Bay11-7082) vs Dsg2^mut/mut",[1],<1
same,"MIP-2 (CXCL2), Dsg2^mut/mut (Bay11-7082) vs WT",[1],<1
same,"MMP-2, Dsg2^mut/mut (Bay11-7082) vs Dsg2^mut/mut",[1],1-2
same,"MMP-2, Dsg2^mut/mut (Bay11-7082) vs WT",[1],4-6
same,"MMP-3, Dsg2^mut/mut (Bay11-7082) vs Dsg2^mut/mut",[1],1-2
same,"MMP-3, Dsg2^mut/mut (Bay11-7082) vs WT",[1],<1
same,"MMP-9, Dsg2^mut/mut (Bay11-7082) vs Dsg2^mut/mut",[1],<1
same,"MMP-9, Dsg2^mut/mut (Bay11-7082) vs WT",[1],<1
same,"Myeloperoxidase, Dsg2^mut/mut (Bay11-7082) vs Dsg2^mut/mut",[1],<1
same,"Myeloperoxidase, Dsg2^mut/mut (Bay11-7082) vs WT",[1],2-4
same,"Osteopontin (OPN), Dsg2^mut/mut (Bay11-7082) vs Dsg2^mut/mut",[1],<1
same,"Osteopontin (OPN), Dsg2^mut/mut (Bay11-7082) vs WT",[1],4-6
same,"Osteoprotegerin/TNFRSF11B, Dsg2^mut/mut (Bay11-7082) vs Dsg2^mut/mut",[1],<1
same,"Osteoprotegerin/TNFRSF11B, Dsg2^mut/mut (Bay11-7082) vs WT",[1],<1
same,"P-Selectin/CD62P, Dsg2^mut/mut (Bay11-7082) vs Dsg2^mut/mut",[1],<1
same,"P-Selectin/CD62P, Dsg2^mut/mut (Bay11-7082) vs WT",[1],>10
same,"PD-EGF/Thymidine phosphorylase, Dsg2^mut/mut (Bay11-7082) vs Dsg2^mut/mut",[1],<1
same,"PD-EGF/Thymidine phosphorylase, Dsg2^mut/mut (Bay11-7082) vs WT",[1],<1
same,"PDGF-BB, Dsg2^mut/mut (Bay11-7082) vs Dsg2^mut/mut",[1],<1
same,"PDGF-BB, Dsg2^mut/mut (Bay11-7082) vs WT",[1],1-2
same,"Pentraxin 2/SAP, Dsg2^mut/mut (Bay11-7082) vs Dsg2^mut/mut",[1],<1
same,"Pentraxin 2/SAP, Dsg2^mut/mut (Bay11-7082) vs WT",[1],1-2
same,"Pentraxin 3/TSG-14, Dsg2^mut/mut (Bay11-7082) vs Dsg2^mut/mut",[1],<1
same,"Pentraxin 3/TSG-14, Dsg2^mut/mut (Bay11-7082) vs WT",[1],<1
same,"Periostin/OSF-2, Dsg2^mut/mut (Bay11-7082) vs Dsg2^mut/mut",[1],<1
same,"Periostin/OSF-2, Dsg2^mut/mut (Bay11-7082) vs WT",[1],<1
same,"Pref-1/DLK-1/FA1, Dsg2^mut/mut (Bay11-7082) vs Dsg2^mut/mut",[1],<1
same,"Pref-1/DLK-1/FA1, Dsg2^mut/mut (Bay11-7082) vs WT",[1],6-10
same,"Proliferin, Dsg2^mut/mut (Bay11-7082) vs Dsg2^mut/mut",[1],<1
same,"Proliferin, Dsg2^mut/mut (Bay11-7082) vs WT",[1],6-10
same,"Proprotein Convertase 9/PCSK9, Dsg2^mut/mut (Bay11-7082) vs Dsg2^mut/mut",[1],1-2
same,"Proprotein Convertase 9/PCSK9, Dsg2^mut/mut (Bay11-7082) vs WT",[1],<1
same,"RAGE, Dsg2^mut/mut (Bay11-7082) vs Dsg2^mut/mut",[1],<1
same,"RAGE, Dsg2^mut/mut (Bay11-7082) vs WT",[1],<1
same,"RBP4, Dsg2^mut/mut (Bay11-7082) vs Dsg2^mut/mut",[1],<1
same,"RBP4, Dsg2^mut/mut (Bay11-7082) vs WT",[1],1-2
same,"Reg3G, Dsg2^mut/mut (Bay11-7082) vs Dsg2^mut/mut",[1],<1
same,"Reg3G, Dsg2^mut/mut (Bay11-7082) vs WT",[1],6-10
same,"Resistin, Dsg2^mut/mut (Bay11-7082) vs Dsg2^mut/mut",[1],<1
same,"Resistin, Dsg2^mut/mut (Bay11-7082) vs WT",[1],2-4
same,"Serpin E1/PAI-1, Dsg2^mut/mut (Bay11-7082) vs Dsg2^mut/mut",[1],<1
same,"Serpin E1/PAI-1, Dsg2^mut/mut (Bay11-7082) vs WT",[1],6-10
same,"Serpin F1/PEDF, Dsg2^mut/mut (Bay11-7082) vs Dsg2^mut/mut",[1],<1
same,"Serpin F1/PEDF, Dsg2^mut/mut (Bay11-7082) vs WT",[1],<1
same,"TIM-1/KIM-1/HAVCR, Dsg2^mut/mut (Bay11-7082) vs Dsg2^mut/mut",[1],1-2
same,"TIM-1/KIM-1/HAVCR, Dsg2^mut/mut (Bay11-7082) vs WT",[1],<1
same,"TNF-α, Dsg2^mut/mut (Bay11-7082) vs Dsg2^mut/mut",[1],<1
same,"TNF-α, Dsg2^mut/mut (Bay11-7082) vs WT",[1],1-2
same,"Thrombopoeitin, Dsg2^mut/mut (Bay11-7082) vs Dsg2^mut/mut",[1],1-2
same,"Thrombopoeitin, Dsg2^mut/mut (Bay11-7082) vs WT",[1],<1
same,"VCAM-1/CD106, Dsg2^mut/mut (Bay11-7082) vs Dsg2^mut/mut",[1],1-2
same,"VCAM-1/CD106, Dsg2^mut/mut (Bay11-7082) vs WT",[1],6-10
same,"VEGF, Dsg2^mut/mut (Bay11-7082) vs Dsg2^mut/mut",[1],1-2
same,"VEGF, Dsg2^mut/mut (Bay11-7082) vs WT",[1],<1
same,"WISP-1/CCN4, Dsg2^mut/mut (Bay11-7082) vs Dsg2^mut/mut",[1],<1
same,"WISP-1/CCN4, Dsg2^mut/mut (Bay11-7082) vs WT",[1],<1
same,"sICAM-1 (CD54), Dsg2^mut/mut (Bay11-7082) vs Dsg2^mut/mut",[1],<1
same,"sICAM-1 (CD54), Dsg2^mut/mut (Bay11-7082) vs WT",[1],1-2
same,increased expression of cytokines in Dsg2^mut/mut hearts,"treated vs untreated Dsg2^mut/mut mice, FIG. 1, result in words",attenuation; also recorded: blunted or fully normalized
